Values quoted from earlier work in US20250041461A1, “[177LU] LUTETIUM-PSMA I&T COMPOSITION AND DOSIMETRY, KIT, METHOD OF MAKING, AND METHOD OF USING THEREOF” (Curium US LLC, priority 2023, published 2025).
Read-outs that look alike come from different tables or passages of the source.

Legend:
prostate cancer = details: in vivo; cited from earlier work
[1] = cited from earlier work
[2] = cited from earlier work; for Absorbed Dose, Mean: Pluvicto; for dose estimate, Mean: Pluvicto Spc

O=C([O-])CN1CCN(CC(=O)[O-])CCN(CC(=O)NCC2CCC(C(=O)N[C@@H](Cc3ccc4ccccc4c3)C(=O)NCCCC[C@H](NC(=O)N[C@@H](CCC(=O)O)C(=O)O)C(=O)O)CC2)CCN(CC(=O)[O-])CC1.[177Lu+3] (some centres unmarked) [^177Lu-PSMA-617]
adverse effects (prostate cancer): mainly transient adverse effects | mean renal absorbed dose ([1]; VISION trial, 29 patients): 0.43±0.16 Gy/GBq | mean renal absorbed dose ([1]; Violet et al.): 0.39±0.16 Gy/GBq | projected cumulative absorbed dose to the kidneys at 6 cycles ([1]; Vision trial): 19±7.3 Gy | renal toxicities ([1]; Vision trial): no renal toxicities were observed | Absorbed Dose, Mean ([2]; Bladder): 0.32 Gy/GBq | dose estimate, Mean ([2]; Heart Wall): 0.17 Gy/GBq | Absorbed Dose, Mean ([2]; Heart): 0.17 Gy/GBq | dose estimate, Mean ([2]; Kidneys): 0.43 Gy/GBq | Absorbed Dose, Mean ([2]; Kidneys): 0.43 Gy/GBq | Absorbed Dose, Mean ([2]; Lacrimal Glands): 2.1 Gy/GBq | dose estimate, Mean ([2]; Lacrimal gland): 2.1 Gy/GBq | Absorbed Dose, Mean ([2]; Left Colon): 0.58 Gy/GBq | dose estimate, Mean ([2]; Left colon): 0.58 Gy/GBq | dose estimate, Mean ([2]; Liver): 0.09 Gy/GBq | Absorbed Dose, Mean ([2]; Liver): 0.090 Gy/GBq | dose estimate, Mean ([2]; Rectum): 0.56 Gy/GBq | Absorbed Dose, Mean ([2]; Right Colon): 0.32 Gy/GBq | dose estimate, Mean ([2]; Right colon): 0.32 Gy/GBq | Absorbed Dose, Mean ([2]; Salivary Glands): 0.63 Gy/GBq | dose estimate, Mean ([2]; Salivary glands): 0.63 Gy/GBq | dose estimate, Mean ([2]; Spleen): 0.07 Gy/GBq | Absorbed Dose, Mean ([2]; Spleen): 0.067 Gy/GBq | dose estimate, Mean ([2]; Thyroid): 0.26 Gy/GBq | Absorbed Dose, Mean ([2]; Thyroid): 0.26 Gy/GBq | dose estimate, Mean ([2]; Urinary bladder wall): 0.32 Gy/GBq
